Test system: anesthetized open-chest dogs
Experiment: Hemodynamics of anesthetized open-chest dogs, intravenous infusion
Assay type: in vivo, mongrel dogs
Description: The animals were anesthetized by intravenous injection of 30 mg/kg sodium pentobarbital, tracheally intubated, and mechanically ventilated with positive air pressure. Left thoracotomy was performed through the fourth intercostal space and the heart was suspended in a pericardial cradle, the aortic root was isolated and a probe of blood flow meter (12 or 14 mm in diameter) was fixed to measure the aortic blood flow as a representation of cardiac output (CO), the circumflex branch of left coronary artery was isolated and a probe of blood flow meter (2 or 2.5 mm in diameter) was fixed to measure the coronary blood flow (CBF). A polyethylene catheter filled with heparin physiological saline was inserted through cardiac apex into the left ventricle to measure the left ventricular pressure (LVP) and left ventricular end-diastolic pressure (LVEDP), Peak positive and peak negative first derivatives of the LVP (+ LVdp/dt and − LVdp/dt) were calculated with the Acknowledge software. The systolic blood pressure (SBP), diastolic blood pressure (DBP) and mean arterial pressure (MAP) were measured by polyethylene catheter via the femoral artery, ECG □ was measured by a AC-601G ECG amplifier. The above-mentioned analog signal was input into a data acquisition workstation (MP100, BIOPAC Systems, USA) to a computer running Acknowledge (version 3.7.1).
After surgery, various indexes before administration were recorded until the indexes were stable, and then intravenous infusion administration was conducted. Thirty dogs were divided into five groups (six dogs in each group), the experiment groups were given 0.15, 0.3, 0.6 mg/kg of ASP-[…] respectively, the normal control group was given 1 ml/kg of solvent, and the positive control group was given 0.3 mg/kg of astragaloside IV. The delivery volumes were 15 ml for each dog was and the delivery velocity was 1 ml/min. The indexes were recorded at 5, 10, 15, 20, 30, 45, 60, 90 and 120 mins after drug administration. At the end of experiment, the hearts were excised and weighted. The myocardial blood flow for per hectogram (CF), coronary resistance (CR), cardiac index (CI), left ventricular work (LVW) and total peripheral resistance (TPR) were calculated according to the following formulae: CF=CBF×[…]/heart weight CR=MAP/CF CI=CO/0.11×(body weight)^2/3 LVW=CO×(MAP−5)×1.052×0.0136 TPR=MAP×79.92/CO
Data are expressed as mean±SD ( x±s), the paired t-test was used to compare the significance between before and after administration, the unpaired t-test was adopted for comparison between groups.

[1] = 0.3 mg/kg iv, 45 min after administration
[2] = 0.3 mg/kg iv, 60 min after administration
[3] = 0.3 mg/kg iv, 90 min after administration
[4] = 0.3 mg/kg iv, 120 min after administration
[5] = 0.3 mg/kg iv, before administration
[6] = 0.6 mg/kg iv, 5 min after administration
[7] = 0.6 mg/kg iv, 10 min after administration
[8] = 0.6 mg/kg iv, 15 min after administration

CC(C)(O)[C@@H]1CC[C@](C)([C@H]2[C@@H](O)C[C@@]3(C)C4C[C@H](OC5OC(CO)C(O)C(O)C5O)C5C(C)(C)[C@@H](O)CC[C@@]56C[C@@]46CC[C@]23C)O1 (stereo partly drawn) [CMG, Cycloastragenol-6-O-β-D-glucoside]
−dp/dt change vs before administration (0.3 mg/kg iv, 30 min after administration): (36 ± 97) mmHg/s
CF [1]: 51.7 ± 23.5 ml/min/100 g
CF change vs before administration [1]: (1.6 ± 6.8) ml/min/100 g
CI [1]: 1.85 ± 0.84 L/min/m^2
CI change vs before administration [1]: (−0.13 ± 0.13) L/min/m^2
CO [1]: 1.03 ± 0.39 L/min
CO change vs before administration [1]: (−0.07 ± 0.07) L/min
CR [1]: 1.65 ± 0.92 mmHg/ml/min/100 g
CR change vs before administration [1]: (0.11 ± 0.29) mmHg/ml/min/100 g
LVEDP [1]: 0.5 ± 2.3 mmHg
LVEDP change vs before administration [1]: (−1.28 ± 0.75) mmHg
LVP [1]: 98 ± 22 mmHg
LVP change vs before administration [1]: (−4.8 ± 5.5) mmHg
LVW [1]: 1.00 ± 0.48 kg · m
LVW change vs before administration [1]: (−0.02 ± 0.11) kg · m
TPR [1]: 6068 ± 2331 dyn · s/cm^5
TPR change vs before administration [1]: (768 ± 937) dyn · s/cm^5
dp/dt [1]: 1285 ± 453 mmHg/s
dp/dt change vs before administration [1]: (24 ± 83) mmHg/s
−dp/dt [1]: −878 ± 266 mmHg/s
−dp/dt change vs before administration [1]: (43 ± 117) mmHg/s
CF [2]: 51.7 ± 23.9 ml/min/100 g
CF change vs before administration [2]: (1.6 ± 6.8) ml/min/100 g
CI [2]: 1.80 ± 0.93 L/min/m^2
CI change vs before administration [2]: (−0.19 ± 0.42) L/min/m^2
CO [2]: 1.00 ± 0.45 L/min
CO change vs before administration [2]: (−0.10 ± 0.25) L/min
CR [2]: 1.54 ± 0.75 mmHg/ml/min/100 g
CR change vs before administration [2]: (0.01 ± 0.19) mmHg/ml/min/100 g
LVEDP [2]: 0.8 ± 2.8 mmHg
LVEDP change vs before administration [2]: (−0.98 ± 0.88) mmHg
LVP [2]: 98 ± 22 mmHg
LVP change vs before administration [2]: (−5.7 ± 6.0) mmHg
LVW [2]: 0.90 ± 0.43 kg · m
LVW change vs before administration [2]: (−0.12 ± 0.26) kg · m
TPR [2]: 6625 ± 4423 dyn · s/cm^5
TPR change vs before administration [2]: (1326 ± 3485) dyn · s/cm^5
dp/dt [2]: 1272 ± 479 mmHg/s
dp/dt change vs before administration [2]: (11 ± 94) mmHg/s
−dp/dt [2]: −833 ± 236 mmHg/s
−dp/dt change vs before administration [2]: (88 ± 199) mmHg/s
CF [3]: 51.1 ± 19.1 ml/min/100 g
CF change vs before administration [3]: (1.0 ± 4.7) ml/min/100 g
CI [3]: 1.74 ± 0.98 L/min/m^2
CI change vs before administration [3]: (−0.25 ± 0.42) L/min/m^2
CO [3]: 0.96 ± 0.47 L/min
CO change vs before administration [3]: (−0.14 ± 0.24) L/min
CR [3]: 1.51 ± 0.66 mmHg/ml/min/100 g
CR change vs before administration [3]: (−0.02 ± 0.16) mmHg/ml/min/100 g
LVEDP [3]: 0.9 ± 2.6 mmHg
LVEDP change vs before administration [3]: (−0.83 ± 0.72) mmHg
LVP [3]: 99 ± 20 mmHg
LVP change vs before administration [3]: (−4.5 ± 7.0) mmHg
LVW [3]: 0.90 ± 0.53 kg · m
LVW change vs before administration [3]: (−0.12 ± 0.32) kg · m
TPR [3]: 7000 ± 4452 dyn · s/cm^5
TPR change vs before administration [3]: (1701 ± 3472 dyn · s/cm^5
dp/dt [3]: 1242 ± 437 mmHg/s
dp/dt change vs before administration [3]: (−19 ± 39) mmHg/s
−dp/dt [3]: −909 ± 312 mmHg/s
−dp/dt change vs before administration [3]: (12 ± 172) mmHg/s
CF [4]: 50.7 ± 20.1 ml/min/100 g
CF change vs before administration [4]: (0.5 ± 2.0) ml/min/100 g
CI [4]: 1.81 ± 1.07 L/min/m^2
CI change vs before administration [4]: (−0.17 ± 0.52) L/min/m^2
CO [4]: 1.00 ± 0.52 L/min
CO change vs before administration [4]: (−0.10 ± 0.30) L/min
CR [4]: 1.60 ± 0.82 mmHg/ml/min/100 g
CR change vs before administration [4]: (0.07 ± 0.21) mmHg/ml/min/100 g
LVEDP [4]: 1.0 ± 2.1 mmHg
LVEDP change vs before administration [4]: (−0.71 ± 0.45) mmHg
LVP [4]: 100 ± 23 mmHg
LVP change vs before administration [4]: (−3.5 ± 10.3) mmHg
LVW [4]: 0.94 ± 0.54 kg · m
LVW change vs before administration [4]: (−0.08 ± 0.37) kg · m
TPR [4]: 7219 ± 5040 dyn · s/cm^5
TPR change vs before administration [4]: (1920 ± 3990) dyn · s/cm^5
dp/dt [4]: 1309 ± 433 mmHg/s
dp/dt change vs before administration [4]: (48 ± 92) mmHg/s
−dp/dt [4]: −894 ± 278 mmHg/s
−dp/dt change vs before administration [4]: (27 ± 63) mmHg/s
+LVdp/dtmax maximum increase (0.3 mg/kg iv, at 5-10 min after administration): 12.0±5.0%
CF [5]: 50.2 ± 19.5 ml/min/100 g
CI [5]: 1.98 ± 0.84 L/min/m^2
CO [5]: 1.10 ± 0.38 L/min
CR [5]: 1.53 ± 0.67 mmHg/ml/min/100 g
LVEDP [5]: 1.7 ± 2.2 mmHg
LVP [5]: 103 ± 20 mmHg
LVW [5]: 1.02 ± 0.47 kg · m
TPR [5]: 5299 ± 1597 dyn · s/cm^5
dp/dt [5]: 1261 ± 453 mmHg/s
−dp/dt [5]: −921 ± 311 mmHg/s
LVEDP maximum decrease (0.6 mg/kg iv): 2.1±0.5 mmHg
CF [6]: 51.7 ± 10.5 ml/min/100 g
CF change vs before administration [6]: (0.5 ± 3.1) ml/min/100 g
CI [6]: 2.00 ± 0.56 L/min/m^2
CI change vs before administration [6]: (0.04 ± 0.16) L/min/m^2
CO [6]: 1.18 ± 0.42 L/min
CO change vs before administration [6]: (0.03 ± 0.09) L/min
CR [6]: 1.44 ± 0.39 mmHg/ml/min/100 g
CR change vs before administration [6]: (0.02 ± 0.08) mmHg/ml/min/100 g
LVEDP [6]: 1.5 ± 1.6 mmHg
LVEDP change vs before administration [6]: (−1.17 ± 0.78) mmHg
LVP [6]: 105 ± 14 mmHg
LVP change vs before administration [6]: (−1.1 ± 3.5) mmHg
LVW [6]: 1.11 ± 0.38 kg · m
LVW change vs before administration [6]: (0.03 ± 0.11) kg · m
TPR [6]: 5474 ± 2219 dyn · s/cm^5
TPR change vs before administration [6]: (−32 ± 572) dyn · s/cm^5
dp/dt [6]: 1186 ± 316 mmHg/s
dp/dt change vs before administration [6]: (83 ± 55) mmHg/s
−dp/dt [6]: −850 ± 223 mmHg/s
−dp/dt change vs before administration [6]: (2 ± 31) mmHg/s
CF [7]: 51.2 ± 8.4 ml/min/100 g
CF change vs before administration [7]: (0.0 ± 2.2) ml/min/100 g
CI [7]: 2.01 ± 0.39 L/min/m^2
CI change vs before administration [7]: (0.05 ± 0.20) L/min/m^2
CO [7]: 1.17 ± 0.33 L/min
CO change vs before administration [7]: (0.02 ± 0.11) L/min
CR [7]: 1.44 ± 0.40 mmHg/ml/min/100 g
CR change vs before administration [7]: (0.03 ± 0.12) mmHg/ml/min/100 g
LVEDP [7]: 0.9 ± 1.6 mmHg
LVEDP change vs before administration [7]: (−1.74 ± 0.68) mmHg
LVP [7]: 105 ± 17 mmHg
LVP change vs before administration [7]: (−1.3 ± 5.0) mmHg
LVW [7]: 1.11 ± 0.34 kg · m
LVW change vs before administration [7]: (0.03 ± 0.15) kg · m
TPR [7]: 5261 ± 1874 dyn · s/cm^5
TPR change vs before administration [7]: (−246 ± 497) dyn · s/cm^5
dp/dt [7]: 1198 ± 278 mmHg/s
dp/dt change vs before administration [7]: (95 ± 70) mmHg/s
−dp/dt [7]: −857 ± 238 mmHg/s
−dp/dt change vs before administration [7]: (−4 ± 46) mmHg/s
CF [8]: 51.4 ± 8.3 ml/min/100 g
CF change vs before administration [8]: (0.2 ± 3.7) ml/min/100 g
CI [8]: 2.05 ± 0.50 L/min/m^2
CI change vs before administration [8]: (0.09 ± 0.16) L/min/m^2
CO [8]: 1.20 ± 0.38 L/min
CO change vs before administration [8]: (0.05 ± 0.09) L/min
CR [8]: 1.43 ± 0.35 mmHg/ml/min/100 g
CR change vs before administration [8]: (0.01 ± 0.07) mmHg/ml/min/100 g
LVEDP [8]: 1.3 ± 1.6 mmHg
LVEDP change vs before administration [8]: (−1.38 ± 0.51) mmHg
LVP [8]: 105 ± 17 mmHg
LVP change vs before administration [8]: (−0.8 ± 4.1) mmHg
LVW [8]: 1.14 ± 0.41 kg · m
